Source: publication PMC11589570, “Critical assessment of LC3/GABARAP ligands used for degrader development and ligandability of LC3/GABARAP binding pockets” (Nature Communications, 2024)
Where two headings read alike, the source gives them in different places.

Molecular target: GABARAPL2 (Homo sapiens, UniProt P60520)
Conditions: GABARAPL2:ligand molar ratio 1:2

Chain of GABARAPL2 (P60520 whole entry): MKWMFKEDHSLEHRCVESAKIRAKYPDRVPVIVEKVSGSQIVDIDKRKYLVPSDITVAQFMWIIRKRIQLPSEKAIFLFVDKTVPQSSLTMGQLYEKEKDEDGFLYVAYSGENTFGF

Q: What does the source list for Cc1ccc(C(=O)N(CCCN)[C@@H](c2nc3cc(Cl)ccc3c(=O)n2Cc2ccccc2)C(C)C)cc1 [compound 3, (R)-N-(3-aminopropyl)-N-(1-(3-benzyl-7-chloro-4-oxo-3,4-dihydroquinazolin-2-yl)−2-methylpropyl)−4-methylbenzamide]?
A: CSP (residue A19): 0.00171 ppm; CSP (residue A23): 0.00424 ppm; CSP (residue A58): 0.00148 ppm; CSP (residue A75): 0.002 ppm; CSP (residue A108): 0.000762 ppm; CSP (residue C15): 0.004 ppm; CSP (residue D8): 0.00263 ppm; CSP (residue D27): 0.00158 ppm; CSP (residue D43): 0.00251 ppm; CSP (residue D45): 0.003 ppm; CSP (residue D54): 0.000849 ppm; CSP (residue D81): 0.00228 ppm; CSP (residue D100): 0.00228 ppm; CSP (residue D102): 0.00165 ppm; CSP (residue E7): 0.00472 ppm; CSP (residue E12): 0.00142 ppm; CSP (residue E17): 0.000762 ppm; CSP (residue E34): 0.009 ppm; CSP (residue E73): 0.000762 ppm; CSP (residue E96): 0.000707 ppm; CSP (residue E98): 0.00122 ppm; CSP (residue E101): 0.002 ppm; CSP (residue E112): 0.0017 ppm; CSP (residue F60): 0.005 ppm; CSP (residue F77): 0.000283 ppm; CSP (residue F79): 0.002 ppm; CSP (residue F104): 0.0075 ppm; CSP (residue F115): 0.005 ppm; CSP (residue G38): 0.005 ppm; CSP (residue G103): 0.00213 ppm; CSP (residue G111): 0.00847 ppm; CSP (residue G116): 0.0024 ppm; CSP (residue H9): 0.010 ppm; CSP (residue H13): 0.0011 ppm; CSP (residue I21): 0.00184 ppm; CSP (residue I32): 0.00354 ppm; CSP (residue I41): 0.011 ppm; CSP (residue I44): 0.00216 ppm; CSP (residue I55): 0.000762 ppm; CSP (residue I63): 0.004 ppm; CSP (residue I64): 0.00283 ppm; CSP (residue I68): 0.008 ppm; CSP (residue I76): 0.000707 ppm; CSP (residue K2): 0.008 ppm; CSP (residue K6): 0.007 ppm; CSP (residue K20): 0.000707 ppm; CSP (residue K24): 0.001 ppm; CSP (residue K35): 0.004 ppm; CSP (residue K46, estimated): 0.010 ppm; CSP (residue K48): 0.022 ppm; CSP (residue K66): 0.00142 ppm; CSP (residue K74): 0.000906 ppm; CSP (residue K97): 0.00113 ppm; CSP (residue K99): 0.00144 ppm; CSP (residue L11): 0.000762 ppm; CSP (residue L50): 0.00216 ppm; CSP (residue L70): 0.0019 ppm; CSP (residue L78): 0.00212 ppm; CSP (residue L105): 0.00283 ppm; CSP (residue M1): 0.006 ppm; CSP (residue M61): 0.00221 ppm; CSP (residue N113): 0.000141 ppm; CSP (residue P26, estimated): 0.002 ppm; CSP (residue P30, estimated): 0.002 ppm; CSP (residue P52, estimated): 0.002 ppm; CSP (residue P71, estimated): 0.002 ppm; CSP (residue Q40): 0.00659 ppm; CSP (residue Q59): 0.000424 ppm; CSP (residue Q69): 0.0011 ppm; CSP (residue R14): 0.003 ppm; CSP (residue R22): 0.00649 ppm; CSP (residue R28): 0.00232 ppm; CSP (residue R47, estimated): 0.015 ppm; CSP (residue R65): 0.0022 ppm; CSP (residue R67): 0.003 ppm; CSP (residue S10): 0.008 ppm; CSP (residue S18): 0.00146 ppm; CSP (residue S37): 0.005 ppm; CSP (residue S39): 0.00232 ppm; CSP (residue S53): 0.002 ppm; CSP (residue S72): 0.00122 ppm; CSP (residue S110): 0.000825 ppm; CSP (residue T56): 0.00133 ppm; CSP (residue T114): 0.0017 ppm; CSP (residue V16): 0.000141 ppm; CSP (residue V29): 0.00214 ppm; CSP (residue V31): 0.00444 ppm; CSP (residue V33): 0.00281 ppm; CSP (residue V36): 0.00638 ppm; CSP (residue V42): 0.00652 ppm; CSP (residue V51): 0.00319 ppm; CSP (residue V57): 0.00127 ppm; CSP (residue V80): 0.00281 ppm; CSP (residue V107): 0.005 ppm; CSP (residue W3): 0.007 ppm; CSP (residue W62): 0.0057 ppm; CSP (residue Y25): 0.00742 ppm; CSP (residue Y49): 0.010 ppm; CSP (residue Y106): 0.00214 ppm; CSP (residue Y109): 0.00263 ppm
